ChEMBL document CHEMBL4270588, “Bioactive heterocycles containing a 3,4,5-trimethoxyphenyl fragment exerting potent antiproliferative activity through microtubule destabilization” (Eur J Med Chem, 2018)
Activity calls are given as the source filed them. The calls are words filed in the database; no cut-off is given here.

Assays:
PC-3 = assay: Antiproliferative activity against human PC3 cells after 48 hrs by MTT assay; format: functional, cell-based; details: PC-3, 48 h
MGC-803 [1] = assay: Antiproliferative activity against human MGC803 cells after 48 hrs by MTT assay; format: functional, cell-based; details: MGC-803, 48 h
ECa-109 cell line = assay: Antiproliferative activity against human EC109 cells after 48 hrs by MTT assay; format: functional, cell-based; details: ECa-109, 48 h
Tubulin [2] = assay: Inhibition of tubulin polymerization (unknown origin) by turbidimetric method; format: protein-complex assay, Homo sapiens
Homo sapiens [3] = organism: Homo sapiens; assay: Inhibition of EBI binding to beta-tubulin colchicine binding site in human MGC803 cells at 5 uM preincubated for 2 hrs followed by EBI addition and measured after 2 hrs by Western blot analysis; format: cell-based
MGC-803 [4] = assay: Cell cycle arrest in human MGC803 cells assessed as accumulation at G2 phase at 200 nM after 48 hrs by propidium iodide staining based flow cytometry (reference value: 8.76%); format: functional
MGC-803 [5] = assay: Induction of apoptosis in human MGC803 cells assessed as live cells at 200 nM after 48 hrs by Annexin-V-FITC/propidium iodide staining based flow cytometry (reference value: 96.4%); format: functional
MGC-803 [6] = assay: Cell cycle arrest in human MGC803 cells assessed as accumulation at S phase at 200 nM after 48 hrs by propidium iodide staining based flow cytometry (reference value: 24.8%); format: functional
MGC-803 [7] = assay: Induction of apoptosis in human MGC803 cells assessed as live cells at 600 nM after 48 hrs by Annexin-V-FITC/propidium iodide staining based flow cytometry (reference value: 96.4%); format: functional
MGC-803 [8] = assay: Induction of apoptosis in human MGC803 cells assessed as late apoptotic cells at 600 nM after 48 hrs by Annexin-V-FITC/propidium iodide staining based flow cytometry (reference value: 1%); format: functional
MGC-803 [9] = assay: Cell cycle arrest in human MGC803 cells assessed as down regulation of CDK1 expression after 48 hrs by Western blot analysis; format: functional, cell-based
MGC-803 [10] = assay: Induction of apoptosis in human MGC803 cells assessed as decrease in Bcl2 level after 48 hrs by Western blot analysis; format: functional, cell-based
MGC-803 [11] = assay: Induction of apoptosis in human MGC803 cells assessed as late apoptotic cells at 200 nM after 48 hrs by Annexin-V-FITC/propidium iodide staining based flow cytometry (reference value: 1%); format: functional
MGC-803 [12] = assay: Induction of apoptosis in human MGC803 cells assessed as decrease in XIAP level after 48 hrs by Western blot analysis; format: functional, cell-based
MGC-803 [13] = assay: Induction of apoptosis in human MGC803 cells assessed as necrotic cells at 200 nM after 48 hrs by Annexin-V-FITC/propidium iodide staining based flow cytometry (reference value: 0.1%); format: functional
MGC-803 [14] = assay: Cell cycle arrest in human MGC803 cells assessed as accumulation at S phase at 400 nM after 48 hrs by propidium iodide staining based flow cytometry (reference value: 24.8%); format: functional
MGC-803 [15] = assay: Induction of apoptosis in human MGC803 cells assessed as late apoptotic cells at 400 nM after 48 hrs by Annexin-V-FITC/propidium iodide staining based flow cytometry (reference value: 1%); format: functional
MGC-803 [16] = assay: Cell cycle arrest in human MGC803 cells assessed as down regulation of cyclin B1 expression after 48 hrs by Western blot analysis; format: functional, cell-based
MGC-803 [17] = assay: Disruption of mitochondrial membrane potential in human MGC803 cells assessed as intact mitochondrial membrane at 400 nM after 48 hrs by JC1 staining based flow cytometry (reference value: 3.9%); format: functional
Tubulin (Homo sapiens) = Tubulin (Homo sapiens) (UniProt P68371+Q9H4B7+P0DPH7+P68366+Q13509+Q71U36+P04350+Q3ZCM7+P07437+P68363+Q9BQE3+Q6PEY2+Q13885+Q9BVA1+Q9BUF5); assay: Inhibition of tubulin polymerization in human MGC803 cells assessed as depolymerization of interphase microtubules at 600 nM after 4 to 8 hrs by DAPI staining based microscopic analysis; format: cell-based
MGC-803 [18] = assay: Disruption of mitochondrial membrane potential in human MGC803 cells assessed as intact mitochondrial membrane at 200 nM after 48 hrs by JC1 staining based flow cytometry (reference value: 3.9%); format: functional
MGC-803 [19] = assay: Induction of apoptosis in human MGC803 cells assessed as decrease in PARP level after 48 hrs by Western blot analysis; format: functional, cell-based
MGC-803 [20] = assay: Disruption of mitochondrial membrane potential in human MGC803 cells assessed as collapse of the mitochondrial membrane potential at 400 nM after 48 hrs by JC1 staining based flow cytometry (reference value: 96.1%); format: functional
MGC-803 [21] = assay: Cell cycle arrest in human MGC803 cells assessed as accumulation at G1 phase at 400 nM after 48 hrs by propidium iodide staining based flow cytometry (reference value: 62.61%); format: functional
MGC-803 [22] = assay: Disruption of mitochondrial membrane potential in human MGC803 cells after 48 hrs by JC1 staining based flow cytometry; format: functional, cell-based
Tubulin [23] = assay: Inhibition of tubulin polymerization (unknown origin) measured every 5 mins by fluorescence assay; format: protein-complex assay, Homo sapiens
MGC-803 [24] = assay: Cell cycle arrest in human MGC803 cells assessed as accumulation at G2 phase at 400 nM after 48 hrs by propidium iodide staining based flow cytometry (reference value: 8.76%); format: functional
MGC-803 [25] = assay: Disruption of mitochondrial membrane potential in human MGC803 cells assessed as collapse of the mitochondrial membrane potential at 200 nM after 48 hrs by JC1 staining based flow cytometry (reference value: 96.1%); format: functional
MGC-803 [26] = assay: Disruption of mitochondrial membrane potential in human MGC803 cells assessed as collapse of the mitochondrial membrane potential at 600 nM after 48 hrs by JC1 staining based flow cytometry (reference value: 96.1%); format: functional
MGC-803 [27] = assay: Induction of apoptosis in human MGC803 cells assessed as live cells at 400 nM after 48 hrs by Annexin-V-FITC/propidium iodide staining based flow cytometry (reference value: 96.4%); format: functional
MGC-803 [28] = assay: Induction of apoptosis in human MGC803 cells assessed as early apoptotic cells at 400 nM after 48 hrs by Annexin-V-FITC/propidium iodide staining based flow cytometry (reference value: 2.5%); format: functional
MGC-803 [29] = assay: Induction of apoptosis in human MGC803 cells assessed as early apoptotic cells at 600 nM after 48 hrs by Annexin-V-FITC/propidium iodide staining based flow cytometry (reference value: 2.5%); format: functional
MGC-803 [30] = assay: Induction of apoptosis in human MGC803 cells assessed as necrotic cells at 400 nM after 48 hrs by Annexin-V-FITC/propidium iodide staining based flow cytometry (reference value: 0.1%); format: functional
MGC-803 [31] = assay: Induction of apoptosis in human MGC803 cells assessed as necrotic cells at 600 nM after 48 hrs by Annexin-V-FITC/propidium iodide staining based flow cytometry (reference value: 0.1%); format: functional
MGC-803 [32] = assay: Cell cycle arrest in human MGC803 cells assessed as accumulation at G1 phase at 200 nM after 48 hrs by propidium iodide staining based flow cytometry (reference value: 62.61%); format: functional
Homo sapiens [33] = organism: Homo sapiens; assay: Inhibition of EBI binding to beta-tubulin colchicine binding site in human MGC803 cells at […] preincubated for 2 hrs followed by EBI addition and measured after 2 hrs by Western blot analysis; format: cell-based
MGC-803 [34] = assay: Disruption of mitochondrial membrane potential in human MGC803 cells assessed as intact mitochondrial membrane at 600 nM after 48 hrs by JC1 staining based flow cytometry (reference value: 3.9%); format: functional
MGC-803 [35] = assay: Induction of apoptosis in human MGC803 cells assessed as early apoptotic cells at 200 nM after 48 hrs by Annexin-V-FITC/propidium iodide staining based flow cytometry (reference value: 2.5%); format: functional

COc1ccc(CN(C(=O)CSc2nncs2)c2cc(OC)c(OC)c(OC)c2)cc1
IC50 (PC-3): 5.53 µM
IC50 (MGC-803 [1]): 1.15 µM
IC50 (ECa-109 cell line): 9.84 µM

COc1ccc(CN(C(=O)CCCSc2nc3ccccc3o2)c2cc(OC)c(OC)c(OC)c2)cc1
IC50 (PC-3): 32.7 µM
IC50 (MGC-803 [1]): 1.29 µM
IC50 (ECa-109 cell line): 11 µM

Cc1ccc(S(=O)(=O)NCc2cn(Cc3cccc(Oc4ccccc4)c3)nn2)cc1
IC50 (Tubulin [2]): 2.41 µM

COc1ccc(CN(C(=O)CCCCSc2nc3ccccc3o2)c2cc(OC)c(OC)c(OC)c2)cc1
IC50 (PC-3): 45.6 µM
IC50 (MGC-803 [1]): 1.36 µM
IC50 (ECa-109 cell line): 7.65 µM

COc1ccc(CN(C(=O)CCSc2nc3ccccc3o2)c2cc(OC)c(OC)c(OC)c2)cc1
IC50 (PC-3): 20.2 µM
IC50 (MGC-803 [1]): 0.64 µM
IC50 (ECa-109 cell line): 12.6 µM

COc1cc2c(c(OC)c1OC)-c1ccc(OC)c(=O)cc1[C@@H](NC(C)=O)CC2 [COLCHICINE]
inhibition (Homo sapiens [3]): Active
IC50 (PC-3): 0.13 µM
IC50 (MGC-803 [1]): 0.177 µM
IC50 (ECa-109 cell line): 1.24 µM

COc1ccc(CN(C(=O)CSc2nc3ccccc3[nH]2)c2cc(OC)c(OC)c(OC)c2)cc1
IC50 (PC-3): 14.3 µM
IC50 (MGC-803 [1]): 1.23 µM
IC50 (ECa-109 cell line): 42.6 µM

COc1ccc(CN(C(=O)CSc2ccccn2)c2cc(OC)c(OC)c(OC)c2)cc1
IC50 (PC-3): 7.51 µM
IC50 (MGC-803 [1]): 2.41 µM
IC50 (ECa-109 cell line): 16 µM

COc1ccc(CN(C(=O)CSc2nc3ccccc3o2)c2cc(OC)c(OC)c(OC)c2)cc1
Activity (MGC-803 [4]): 12.13%
Activity (MGC-803 [5]): 95.9%
Activity (MGC-803 [6]): 23.29%
IC50 (PC-3): 3.53 µM
Activity (MGC-803 [7]): 61.7%
Activity (MGC-803 [8]): 30.3%
Activity (MGC-803 [9]): Dose-dependent effect
Activity (MGC-803 [10]): Dose-dependent effect
Activity (MGC-803 [11]): 1.1%
Activity (MGC-803 [12]): Dose-dependent effect
Activity (MGC-803 [13]): 0.1%
Activity (MGC-803 [14]): 22.46%
Activity (MGC-803 [15]): 4.3%
Activity (MGC-803 [16]): Dose-dependent effect
Activity (MGC-803 [17]): 60.1%
inhibition (Tubulin (Homo sapiens)): Active
Activity (MGC-803 [18]): 96.1%
Activity (MGC-803 [19]): Dose-dependent effect
Activity (MGC-803 [20]): 39.9%
Activity (MGC-803 [21]): 52.55%
Activity (MGC-803 [22]): Dose-dependent effect
IC50 (MGC-803 [1]): 0.45 µM
IC50 (Tubulin [23]): 3.35 µM
Activity (MGC-803 [24]): 20.71%
Activity (MGC-803 [25]): 3.9%
Activity (MGC-803 [26]): 52.8%
Activity (MGC-803 [27]): 89.7%
Activity (MGC-803 [28]): 4.1%
IC50 (ECa-109 cell line): 24.8 µM
Activity (MGC-803 [29]): 4.9%
Activity (MGC-803 [30]): 1.9%
Activity (MGC-803 [31]): 3.1%
Activity (MGC-803 [32]): 61.68%
inhibition (Homo sapiens [33]): Active
Activity (MGC-803 [34]): 47.2%
Activity (MGC-803 [35]): 2.8%

COc1ccc(CN(C(=O)CSc2nnnn2C)c2cc(OC)c(OC)c(OC)c2)cc1
IC50 (PC-3): 10.5 µM
IC50 (MGC-803 [1]): 2.49 µM
IC50 (ECa-109 cell line): 5.54 µM

COc1ccc(CN(C(=O)CSc2nc3ccc(OC)cc3s2)c2cc(OC)c(OC)c(OC)c2)cc1
IC50 (PC-3): 20.2 µM
IC50 (MGC-803 [1]): 1.27 µM
IC50 (ECa-109 cell line): > 80 µM
